From US9393222B2, “Use of HDAC and/or DNMT inhibitors for treatment of ischemic injury” (The Trustees of the University of Pennsylvania, priority 2004, dated 2016)

Legend:
[1] = system: myocardial ischemia-reperfusion injury; assay: Mouse myocardial ischemia-reperfusion (45 min LAD coronary artery occlusion, 24 h reperfusion), infarct size/area at risk; assay type: in vivo, mice
Procedure: Mice were injected with 5-aza-2′dC or saline, then subjected to ischemia. […] Both visual blanching and ST segment elevation on continuous ECG display confirmed myocardial ischemia. After 45 minutes, the PE-10 tubing was removed, permitting reperfusion. The sternotomy wound was closed in two layers with 4-0 Vicryl (Ethicon, Inc., Sommerville, N.J.) and the mouse extubated. 24 hours later, the mice were sacrificed, and infarcted and at-risk myocardial tissue was quantitated to determine infarct size.
The volume of viable myocardium remaining was determined by incubation of the tissue with 2% triphenyltetrazolium chloride: mice were euthanized by CO2 inhalation, the hearts were removed, and the aorta cannulated with a 21-gauge blunt-ended needle. Hearts were perfused with 3 ml of phosphate buffered saline solution, followed by 3 ml of 1% (2,3,5)-triphenyltetrazolium (TTC) at 37° C. The hearts were frozen at −80° C. for 20 minutes and cut into 1.5-mm slices. Each slice was individually weighed and photographed with incident light on both sides with a Leica DC200 CCD camera and MZ16 stereomicroscope (Leica Microsystems, Inc.) Infarct area was determined by visualizing TTC precipitate-excluded areas using NIH Image J software.
The volume of tissue at risk for ischemic injury (i.e. tissue lacking normal blood flow during the occlusion) was assessed by injection of the mice with FluoSphere 15-micron fluorescent microspheres (Molecular Probes/Invitrogen, Eugene, Oreg.) in the ascending aorta (clamped distally) after re-ligation of the left anterior descending coronary artery. The heart was sectioned, and fluorescence measured by cutting the tissue into 100 μm slices and determining the area of microsphere perfused cardiac tissue (perfused tissue) and the area excluded from microspheres (area at risk).
The volume of necrotic tissue was divided by the volume of tissue at risk for ischemic injury, to obtain the infarct size. Infarct size in the drug-treated groups was compared to the infarct size in the vehicle-treated group to determine the relative reduction in injury reported in the Table.
To ascertain the effect of DNMT inhibition on ischemic injury, mice were injected in the left ventricle with either the DNMT inhibitor 5-aza-2-deoxycytidine (5-aza-2′dC) or saline (negative control), then cardiac ischemia was induced by occlusion of the left anterior descending coronary artery for 45 minutes. The hearts were re-perfused for 24 hours, and the mice were sacrificed.
Mice were administered either the HDAC inhibitor TSA or vehicle (DMSO) alone, in the left ventricle. Ischemia was induced by occlusion of the left anterior descending coronary artery for 45 minutes, and mice were sacrificed following a 24-hour reperfusion period. The volume of infarcted and at-risk myocardial tissue was quantitated as described for Example 1.
To further characterize the effect of HDAC inhibitors and DNMT inhibitors on ischemic injury, a larger study was conducted, in which the HDAC inhibitor was added at several time points. In addition, a different HDAC inhibitor, Scriptaid (BioMol, Plymouth Meeting, Pa.), was tested, together with its corresponding negative control compound, Nullscript (Biomol). Ischemia was induced, and amounts of viable and necrotic tissue measured, as described for Example 1. A total of 217 mice were utilized in this Example, distributed as follows: Saline=38; DMSO=45; Nullscript=11; TSA-T1=31; TSA-T2=25; TSA-T3=15; Scriptaid=25; 5aza2′dC=27. […] In addition, HDAC inhibitors were effective when administered either before ischemia or 1 hour after ischemia.

[2] = system: histone H3 acetylation (acetyl-Lys9 H3); assay: Histone acetylation in ischemic myocardium, acid/urea gel and anti-acetyl H3 Western blot; assay type: in vivo, mice; settings: pre-treatment (1 hour before ischemia)
Procedure: Cells were lysed in Triton X/deoxycholate buffer (20 millimolar [mM] HEPES, pH 7.2, 1% Triton X-100, 1% sodium deoxycholate, 100 mM sodium chloride, 50 mM sodium fluoride, 5 mM EDTA, 100 μM sodium molybdate, with protease inhibitors), and insoluble material was removed by a 15 minute (min) centrifugation in a microfuge, and the supernatant was subjected to 100,000×g, […] centrifugation. The pellet was extracted with 9 M urea, and the resulting pellet extracted with 0.3 M HCl.
40 centimeter (cm) acetic acid/urea gels were prepared as follows: The separating gel (0.75 millimeter [mm] thick) contained 15% acrylamide/0.2% methylenebisacrylamide, 4 molar (M) urea, and 5% acetic acid. The stacking gel contained 7.5% acrylamide/0.1% methylenebisacrylamide, 8 M urea, and 5% acetic acid. Proteins were solubilized in sample buffer (8 M urea, 5% acetic acid, 5% 2-mercaptoethanol, 25 milligram per milliliter (mg/ml) protamine sulfate, with methyl green) and loaded onto gels that had been pre-electrophoresed to a constant current and scavenged with […] cysteamine (Sigma-Aldrich). […]
To determine the effect of ischemia and HDAC inhibitors on histone acetylation, ischemia was induced in mice, as described in Example 1, and the degree of histone acetylation in myocardium was determined Histone acetylation was reduced in response to ischemia (FIG. 1).

[3] = time of treatment not given in Table 3
[4] = T1: treatment 1 hour before ischemia
[5] = T2: treatment 1 hour after ischemia
[6] = T3: treatment 12 hours after ischemia

## Nc1ncn([C@H]2C[C@H](O)[C@@H](CO)O2)c(=O)n1 [5-aza-2′dC, 5-aza-2-deoxycytidine]
[1]; mice, injected in left ventricle before 45 min LAD occlusion, 24 h reperfusion
  reduction of infarct size vs saline: 69.6%
[1]; mice, injected in left ventricle before 45 min LAD occlusion, 24 h reperfusion (Table 1)
  Ratio of infarct size/area at risk: 10.3%
[1]; [3]
  % decrease (w.r.t. DMSO): 71.40%
  Infarct size/area at risk (±SEM): 10.3% ± 0.03%

## O=C(CCCN1C(=O)c2cccc3cccc(c23)C1=O)NO [Nullscript]
[1]; [3]
  Infarct size/area at risk (±SEM): 38.0% ± 0.56%

## O=C(CCCCCN1C(=O)c2cccc3cccc(c23)C1=O)NO [Scriptaid]
[1]; [4]
  % decrease (w.r.t. DMSO): 44.20%
  Infarct size/area at risk (±SEM): 21.2% ± 0.33%

## CC(/C=C/C(=O)NO)=C\[C@@H](C)C(=O)c1ccc(N(C)C)cc1 [TSA, trichostatin A]
[1]; [4]
  % decrease (w.r.t. DMSO): 48.30%
  Infarct size/area at risk (±SEM): 18.6% ± 0.04%
[1]; [5]
  % decrease (w.r.t. DMSO): 55.60%
  Infarct size/area at risk (±SEM): 16.0% ± 0.04%
[1]; [6]
  % decrease (w.r.t. DMSO): 8.30%
  Infarct size/area at risk (±SEM): 33.0% ± 0.05%
[1]; mice, administered in left ventricle, 45 min LAD occlusion, 24 h reperfusion
  reduction in infarct size vs DMSO vehicle: 48.3%
[1]; mice, administered in left ventricle, 45 min LAD occlusion, 24 h reperfusion (Table 2)
  Ratio of infarct size/area at risk: 18.6%
[2]
  effect on ischemia-induced reduction in histone acetylation: partially prevented the reduction in histone acetylation
